In patent US20040067531A1, “Methods of modulating protein tyrosine kinase function with substituted indolinone compounds” (SUGEN, INC., priority 1997, published 2004):

Assays:
[1] = tested on: EGF-induced BrdU incorporation; experiment: EGF-induced BrdU incorporation assay; type: cell-based; details: read-out: EGF-Induced BrdU Incorp. IC50
Description: (§1) PDGF-, FGF-, and EGF-Induced BRDU Incorporation Assay
(§2) 1. Cells were seeded at 8000 cells/well in DMEM, 10% CS, 2 mM Gln in a 96 well plate. Cells were incubated overnight at 37° C. in 5% CO2.
(§3) 2. After 24 hours, the cells were washed with PBS, and then were serum starved in serum free medium (0% CS DMEM with 0.1% BSA) for 24 hours.
(§4) 3. On day 3, ligand (PDGF=3.8 nM, prepared in DMEM with 0.1% BSA) and test compounds were added to the cells simultaneously. The negative control wells received serum free DMEM with 0.1% BSA only; the positive control cells received the ligand (PDGF) but no test compound. Test compounds were prepared in serum free DMEM with ligand in a 96 well plate, and serially diluted for 7 test concentrations.
(§5) 4. After 20 hours of ligand activation, diluted BrdU labeling reagent (1:100 in DMEM, 0.1% BSA) was added and the cells were incubated with BrdU (final concentration=10 μM) for 1.5 hours.
(§6) 5. After incubation with labeling reagent, the medium was removed by decanting and tapping the inverted plate on a paper towel. FixDenat solution was added (50 μL/well) and the plates were incubated at room temperature for 45 minutes on a plate shaker.
(§7) 6. The FixDenat solution was thoroughly removed by decanting and tapping the inverted plate on a paper towel. Milk was added (5% dehydrated milk in PBS, 200 μL/well) as a blocking solution and the plate was incubated for 30 minutes at room temperature on a plate shaker.
(§8) 7. The blocking solution was removed by decanting and the wells were washed once with PBS. Anti-BrdU-POD solution (1:100 dilution in PBS, 1% BSA) was added (100 μL/well), and the plate was incubated for 90 minutes at room temperature on a plate shaker.
(§9) 8. The antibody conjugate was thoroughly removed by decanting and rinsing the wells 5 times with PBS, and the space was dried by inverting and tapping on a paper towel.
(§10) 9. TMB substrate solution was added (100 μL/well) and incubated for 20 minutes at room temperature on a plate shaker until color development was sufficient for photometric detection.
(§11) 10. The absorbance of the samples were measured at 410 nm (in “dual wavelength” mode with a filter reading at 490 nm, as a reference wavelength) on a Dynatech ELISA plate reader.
(§12) The IC50 values were measured for several of the compounds of the invention. These values are depicted in Table 10.

FLK-1 receptor = target: T1, FLK-1 receptor (Mus musculus, UniProt P35918); experiment: ELISA assay measuring the kinase activity of the FLK-1 receptor in cells engineered to express FLK-1; type: cell-based; details: NIH3T3 C7#3 FLK-1 expressing cells, VEGF stimulation, phosphotyrosine ELISA
T1 construct: expressed in transfected cells; host or cells: NIH3T3 C7#3
Description: An ELISA assay was conducted to measure the kinase activity of the FLK-1 receptor and more specifically, the inhibition or activation of TK activity on the FLK-1 receptor. Specifically, the following assay was conducted to measure kinase activity of the FLK-1 receptor in cells genetically engineered to express FLK-1.
(11) NIH3T3 C7#3 Cells (FLK-1 expressing cells);
The following protocol was used for conducting the assay:
1. Coat Corning 96-well elisa plates with 1.0 μg per well Cappel Anti-rabbit IgG antibody in 0.1 M Na2CO3 pH 9.6. Bring final volume to 150 μL per well. Coat plates overnight at 4° C. Plates can be kept up to two weeks when stored at 4° C.
2. Grow cells in Growth media (DMEM, supplemental with 2.0 mM L-Glutamine, 10% FBS) in suitable culture dishes until confluent at 37° C., 5% CO2.
3. Harvest cells by trypsinization and seed in Corning 25850 polystyrene 96-well roundbottom cell plates, 25.000 cells/well in 200 μL of growth media.
4. Grow cells at least one day at 37° C., 5% CO2.
5. Wash cells-with D-PBS 1×.
6. Add 200 μL/well of starvation media (DMEM, 2.0 mM 1-Glutamine, 0.1% FBS). Incubate overnight at 37° C., 5% CO2.
7. Dilute Compounds 1:20 in polypropylene 96 well plates using starvation media. Dilute dimethylsulfoxide 1:20 for use in control wells.
8. Remove starvation media from 96 well cell culture plates and add 162 μL of fresh starvation media to each well.
9. Add 18 μL of 1:20 diluted Compound dilution (from step 7) to each well plus the 1:20 dimethylsulfoxide dilution to the control wells (+/− VEGF), for a final dilution of 1:200 after cell stimulation. Final dimethylsulfoxide is 0.5%. Incubate the plate at 37° C., 5% CO2 for two hours.
10. Remove unbound antibody from ELISA plates by inverting plate to remove liquid. Wash 3 times with TBSW+0.5% ethanolamine, pH 7.0. Pat the plate on a paper towel to remove excess liquid and bubbles.
11. Block plates with TBSW+0.5% Ethanolamine, pH 7.0, 150 μL per well. Incubate plate thirty minutes while shaking on a microliter plate shaker.
12. Wash plate 3 times as described in step 10.
13. […] Bring final volume to 150 μL/well with TBSW+0.5% ethanolamine pH 7.0. Incubate plate for thirty minutes while shaking.
14. Add 180 μL starvation medium to the cells and stimulate cells with 20 μL/well 10.0 mM sodium ortho vanadate and 500 ng/mL VEGF (resulting in a final concentration of 1.0 mM sodium ortho vanadate and 50 ng/mL VEGF per well) for eight minutes at 37° C., 5% CO2. Negative control wells receive only starvation medium.
15. After eight minutes, media should be removed from the cells and washed one time with 200 μL/well PBS.
16. Lyse cells in 150 μL/well HNTG while shaking at room temperature for five minutes. HNTG formulation includes sodium ortho vanadate, sodium pyro phosphate and EDTA.
17. Wash ELISA plate three times as described in step 10.
18. Transfer cell lysates from the cell plate to ELISA plate and incubate while shaking for two hours. To transfer cell lysate pipette up and down while scrapping the wells.
19. Wash plate three times as described in step 10.
20. Incubate ELISA plate with 0.02 μg/well UB40 in TBSW+05% ethanolamine. Bring final volume to 150 μL/well. Incubate while shaking for 30 minutes.
21. Wash plate three times as described in step 10.
22. Incubate ELISA plate with 1:10,000 diluted EIA grade goat anti-mouse IgG conjugated horseradish peroxidase in TBSW+0.5% ethanolamine, pH 7.0. Bring final volume to 150 μL/well. Incubate while shaking for thirty minutes.
23. Wash plate as described in step 10.
24. Add 100 μL of ABTS/H2O2 solution to well. Incubate ten minutes while shaking.
25. Add 100 μL of 0.2 M HCl for 0.1 M HCl final to stop the color development reaction. Shake 1 minute at room temperature. Remove bubbles with slow stream of air and read the ELISA plate in an ELISA plate reader at 410 nm.
(§13) The IC50 values were measured for several of the compounds of the invention.

[2] = tested on: 3T3 cell line genetically engineered to express human PDGF-R; experiment: PDGF-induced BrdU incorporation assay; type: cell-based; details: NIH3T3; 3T3 cells expressing human PDGF-R, PDGF 3.8 nM; read-out: PDGF-Induced BrdU Incorp. IC50
Description: (1) PDGF: human PDGF B/B; 1276-956, Boehringer Mannheim, Germany
(8) 3T3 cell line genetically engineered to express human PDGF-R.
as §2, §3, §4, §5, §6, §7, §8, §9, §10, §11, §12

[3] = tested on: FGF-induced BrdU incorporation; experiment: FGF-induced BrdU incorporation assay; type: cell-based; details: read-out: FGF-Induced BrdU Incorp. IC50
Description: as §1, §2, §3, §4, §5, §6, §7, §8, §9, §10, §11, §12

[4] = target: Myc-GyrB-FGFR fusion protein (Homo sapiens, UniProt P11362); experiment: ELISA assay measuring the kinase activity of the FGF receptor (Myc-GyrB-FGFR from COS/FGFR cell lysate); type: biochemical; details: 7 μM ATP
Description: The following protocol describes the reagents and procedures used to analyze protein-tyrosine kinase activity of the Myc-GyrB-FGFR fusion protein.
Coat Corning 96 well ELISA plates with 1.0 μg/well of Rabbit αGyrB antibody in PBS for a total well volume of 100 μL. Store overnight at 4° C.
Remove unbound Rabbit antibody by inverting plate to remove liquid. Pat plate on a paper towel to remove excess liquid and bubbles
Add 100 μL of Blocking Buffer (TBB) to each well. Incubate while shaking on a microliter plate shaker at room temperature for 30 min.
Wash 4× with TBST. Pat plate on a paper towel to remove excess liquid and bubbles.
Add 15 μg COS/FGFR cell lysate Myc-GyrB-FGFR sources per well in HNTG for a final volume of 100 μL per well. Incubate while shaking on a micro-liter plate shaker at room temperature for 2 hours.
Wash 4× with TBST as described in step 4.
Add 80 μL of 1× kinase buffer per well.
Dilute compunds/extracts 1:10 (or as stated otherwise) in 1× kinase buffer +1% DMSO in a polypropylene 96 well plate.
At this point diluted Compounds/Extracts are added to the ELISA plate. […]

EGFR protein = target: T2, EGFR protein (Homo sapiens, UniProt P00533); experiment: ELISA assay measuring the kinase activity of the EGF receptor (EGFR captured from A431 cell lysate); type: biochemical
T2 construct: A431 cell lysate; endogenous in cells; host or cells: A431
Description: The following protocol describes the reagents and procedures used to analyze protein tyrosine kinase activity on the EGFR protein.
All of the following steps are conducted at room temperature unless it is specifically indicated. All ELISA plate washing is by rinsing 4× with TBST.
1. Coat Corning 96 well ELISA plates with 0.5 μg/well of SUMO1 in a volume of 100 μL PBS. Store overnight at 4° C.
2. Remove unbound SUMO1 by inverting plate to remove liquid. Wash plates with distilled water. Pat plate on a paper towel to remove excess liquid and bubbles
3. Add 150 μL of Blocking Buffer to each well. Incubate while shaking on a microliter plate shaker at room temperature for 30 min.
4. Wash 3× with deionized water, then once with TBST. Pat plate on a paper towel to remove excess liquid and bubbles.
5. Dilute lysate in PBS (7 μg of lysate/100 μL of PBS).
6. Add 100 μL of diluted lysate to each well. Shake at room temperature for 60 min.
7. Wash as described in step 4.
8. Add 120 μL TBS to ELISA plate containing captured EGFR.
9. Dilute drugs/extracts 1:10 (unless specified otherwise) in TBS in 96-well polypropylene plates.
10. Add 13.5 μL diluted drugs/extracts to ELISA plate.
11. Incubate for 30 minutes while shaking at room temperture.
12. […] Incubate while shaking on a micro-liter plate shaker at room temperature for 5 min.
13. Stop Kinase reaction with the addition of 16.5 μL of 200 mM EDTA pH 8.0 to all wells.
14. Wash 4× with deionized water and twice with TBST.
15. Add 100 μL per well of anti-phosphotyrosine (1:3000 dilution in TBST). Incubate while shaking on a micro-liter plate shaker 30-45 minutes at room temperature while shaking.
16. Wash as described in step 4.
17. Add 100 μL per well of biosource Goat anti-rabbit IgG peroxidase conjugate (1:2000 dilution in TBST). Incubate 30 min. at room temerature while shaking.
18. Wash as described in step 4.
19. Add 100 μL of ABTS/H2O2 solution to each well.
20. Incubate 5 to 15 minutes while shaking. Remove any bubbles.
21. If necessary stop reaction with the addition of 10 μL of 0.2 M HCl/well.
22. Read assay on Dynatech MR7000 ELISA Plate Reader.
as §13

T1 sequence (P35918 20-1345): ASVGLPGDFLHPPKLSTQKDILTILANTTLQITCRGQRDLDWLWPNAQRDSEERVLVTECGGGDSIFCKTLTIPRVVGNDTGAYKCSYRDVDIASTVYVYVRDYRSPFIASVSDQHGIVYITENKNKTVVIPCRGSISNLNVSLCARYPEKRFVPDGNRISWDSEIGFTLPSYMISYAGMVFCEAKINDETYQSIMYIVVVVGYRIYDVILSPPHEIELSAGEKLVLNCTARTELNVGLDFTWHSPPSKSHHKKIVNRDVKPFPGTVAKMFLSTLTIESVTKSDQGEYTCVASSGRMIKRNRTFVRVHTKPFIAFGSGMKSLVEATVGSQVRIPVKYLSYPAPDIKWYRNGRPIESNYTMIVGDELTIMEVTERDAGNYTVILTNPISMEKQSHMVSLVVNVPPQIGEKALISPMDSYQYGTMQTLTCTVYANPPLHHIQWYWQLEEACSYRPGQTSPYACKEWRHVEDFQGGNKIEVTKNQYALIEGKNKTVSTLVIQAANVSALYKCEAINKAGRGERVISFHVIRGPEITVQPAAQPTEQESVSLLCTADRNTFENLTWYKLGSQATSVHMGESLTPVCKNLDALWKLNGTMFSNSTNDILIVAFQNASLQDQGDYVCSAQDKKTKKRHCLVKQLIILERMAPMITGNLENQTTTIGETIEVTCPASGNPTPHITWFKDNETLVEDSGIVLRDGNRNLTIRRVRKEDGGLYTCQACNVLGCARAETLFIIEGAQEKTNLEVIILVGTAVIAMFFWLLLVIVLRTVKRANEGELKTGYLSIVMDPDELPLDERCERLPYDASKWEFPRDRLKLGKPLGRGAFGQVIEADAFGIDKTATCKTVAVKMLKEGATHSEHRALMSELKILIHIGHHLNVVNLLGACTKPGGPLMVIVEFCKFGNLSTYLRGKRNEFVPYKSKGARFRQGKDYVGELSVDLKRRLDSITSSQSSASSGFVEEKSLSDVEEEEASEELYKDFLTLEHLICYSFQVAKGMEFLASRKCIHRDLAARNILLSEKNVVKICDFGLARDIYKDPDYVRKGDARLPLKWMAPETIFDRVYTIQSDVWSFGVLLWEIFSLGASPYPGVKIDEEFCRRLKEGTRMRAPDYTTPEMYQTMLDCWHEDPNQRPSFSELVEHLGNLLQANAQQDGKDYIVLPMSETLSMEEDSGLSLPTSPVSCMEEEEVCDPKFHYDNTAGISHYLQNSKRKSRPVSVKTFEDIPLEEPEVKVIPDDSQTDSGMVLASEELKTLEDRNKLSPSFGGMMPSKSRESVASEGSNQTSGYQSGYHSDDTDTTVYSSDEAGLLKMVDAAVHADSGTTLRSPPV
Chain of Myc-GyrB-FGFR fusion protein (P11362 398-822): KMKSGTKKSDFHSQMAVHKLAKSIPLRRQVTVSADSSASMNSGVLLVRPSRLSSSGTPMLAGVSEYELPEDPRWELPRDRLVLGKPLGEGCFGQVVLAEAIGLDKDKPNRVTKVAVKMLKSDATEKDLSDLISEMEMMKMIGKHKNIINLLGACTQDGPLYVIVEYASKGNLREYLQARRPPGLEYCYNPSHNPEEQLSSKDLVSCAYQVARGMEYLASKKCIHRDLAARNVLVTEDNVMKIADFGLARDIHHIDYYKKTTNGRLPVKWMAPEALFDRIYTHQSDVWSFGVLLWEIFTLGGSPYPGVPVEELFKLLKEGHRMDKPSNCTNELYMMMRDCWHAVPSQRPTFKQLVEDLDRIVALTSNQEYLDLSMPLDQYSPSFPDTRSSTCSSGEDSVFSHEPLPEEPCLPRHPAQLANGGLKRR
T2 sequence (P00533 25-1210): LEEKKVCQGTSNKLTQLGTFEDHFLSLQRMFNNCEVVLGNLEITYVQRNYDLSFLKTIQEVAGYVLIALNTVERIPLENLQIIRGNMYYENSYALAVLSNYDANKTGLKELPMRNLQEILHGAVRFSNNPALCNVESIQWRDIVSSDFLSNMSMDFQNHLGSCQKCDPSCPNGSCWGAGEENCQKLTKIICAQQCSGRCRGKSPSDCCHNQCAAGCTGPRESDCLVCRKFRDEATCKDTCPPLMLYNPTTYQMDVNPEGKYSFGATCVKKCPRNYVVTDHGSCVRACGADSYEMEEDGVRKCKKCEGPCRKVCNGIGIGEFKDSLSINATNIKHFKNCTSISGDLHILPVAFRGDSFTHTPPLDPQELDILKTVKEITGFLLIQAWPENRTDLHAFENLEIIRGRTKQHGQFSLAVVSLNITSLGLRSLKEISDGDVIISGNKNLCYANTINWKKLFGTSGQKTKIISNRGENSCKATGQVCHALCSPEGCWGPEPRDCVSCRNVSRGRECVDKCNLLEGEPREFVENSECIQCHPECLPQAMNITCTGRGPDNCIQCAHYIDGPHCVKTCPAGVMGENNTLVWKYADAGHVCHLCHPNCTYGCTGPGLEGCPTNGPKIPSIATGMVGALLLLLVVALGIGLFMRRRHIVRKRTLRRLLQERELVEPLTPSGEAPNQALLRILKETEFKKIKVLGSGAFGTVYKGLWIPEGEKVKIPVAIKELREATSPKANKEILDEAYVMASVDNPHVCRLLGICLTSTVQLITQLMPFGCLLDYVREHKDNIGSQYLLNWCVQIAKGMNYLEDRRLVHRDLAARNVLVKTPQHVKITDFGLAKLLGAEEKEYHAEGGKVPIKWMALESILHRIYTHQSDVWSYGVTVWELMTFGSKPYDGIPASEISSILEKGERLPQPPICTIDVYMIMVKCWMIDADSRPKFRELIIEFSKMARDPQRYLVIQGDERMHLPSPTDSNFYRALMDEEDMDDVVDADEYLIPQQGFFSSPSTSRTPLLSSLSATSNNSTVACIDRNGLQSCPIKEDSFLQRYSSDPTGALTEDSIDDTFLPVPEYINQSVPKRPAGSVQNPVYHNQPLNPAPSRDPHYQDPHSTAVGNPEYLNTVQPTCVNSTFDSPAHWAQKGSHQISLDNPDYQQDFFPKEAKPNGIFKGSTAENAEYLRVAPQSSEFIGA

Compound	IC50 [1] [µM]	IC50 (FLK-1 receptor) [µM]	IC50 [2] [µM]	IC50 [3] [µM]	other results
O=C(O)CCc1c(C=C2C(=O)Nc3cc(Cl)ccc32)[nH]c2c1CCCC2 [IN-006, 3-[2-(6-Chloro-2-oxo-1,2-dihydro-indol-3-ylidenemethyl)-4,5,6,7-tetrahydro-1H-indol-3-yl]-propionic acid]	63.6	0.031	3.7	30.2	–
O=C(O)CCc1c(/C=C2\C(=O)Nc3ncccc32)[nH]c2c1CCCC2 [IN-014, 3-[2-(2-Oxo-1,2-dihydro-pyrrolo[2,3-b]pyridin-3-ylidenemethyl)-4,5,6,7-tetrahydro-1H-indol-3-yl]-propionic acid]	–	0.14	–	–	–
COc1cccc(-c2ccc3c(c2)NC(=O)C3=Cc2[nH]c3c(c2CCC(=O)O)CCCC3)c1 [IN-015, 3-{2-[6-(3-Methoxy-phenyl)-2-oxo-1,2-dihydro-indol-3-ylidenemethyl]-4,5,6,7-tetrahydro-1H-indol-3-yl}-propionic acid]	–	< 0.78	–	–	–
O=C(O)CCc1c(C=C2C(=O)Nc3cc(-c4ccccc4)ccc32)[nH]c2c1CCCC2 [IN-017, 3-[2-(2-Oxo-6-phenyl-1,2-dihydro-indol-3-ylidenemethyl)-4,5,6,7-tetrahydro-1H-indol-3-yl]-propionic acid]	–	< 0.78	–	–	–
COc1ccccc1-c1ccc2c(c1)NC(=O)C2=Cc1[nH]c2c(c1CCC(=O)O)CCCC2 [IN-018, 3-{2-[6-(2-Methoxy-phenyl)-2-oxo-1,2-dihydro-indol-3-ylidenemethyl]-4,5,6,7-tetrahydro-1H-indol-3-yl}-propionic acid]	–	2.7	–	–	–
CC(C)NS(=O)(=O)c1ccc2c(c1)C(=Cc1[nH]c3c(c1CCC(=O)O)CCCC3)C(=O)N2 [IN-019, 3-[2-(5-Isopropylaminosulfonyl-2-oxo-1,2-dihydro-indol-3-ylidenemethyl)-4,5,6 7-tetrahydro-1H-indol-3-yl]-propionic acid]	–	< 0.78	–	–	–
O=C(O)CCc1ccccc1/C=C1/C(=O)Nc2ccccc21 [IN-025, 3-[2-(2-Oxo-1,2-dihydro-indol-3-ylidenemethyl)-phenyl]-propionic acid]	–	–	–	–	IC50 [4]: 30.2 µM
Cc1ccc2c(c1)C(=Cc1[nH]cc(C)c1CCC(=O)O)C(=O)N2 [IN-032, 3-[2-(5-Methyl-2-oxo-1,2-dihydro-indol-3-ylidenemethyl)-4-methyl-1H-pyrrol-3-yl]-propionic acid]	> 50	–	11	30	–
COc1ccc2c(c1)C(=Cc1[nH]cc(C)c1CCC(=O)O)C(=O)N2 [IN-033, 3-[2-(5-Methoxy-2-oxo-1,2-dihydro-indol-3-ylidenemethyl)-4-methyl-1H-pyrrol-3-yl]-propionic acid]	> 50	–	> 50	35	IC50 (EGFR protein): > 100 µM
